Source: ChEMBL document CHEMBL3044974, “Design, synthesis, insecticidal activity and structure-activity relationship of 3,3-dichloro-2-propenyloxy-containing phthalic acid diamide structures” (2012)

Assays:
Format in all cases: functional
Plutella xylostella [1] = assay: Insecticidal activity against Plutella xylostella (diamondback moth) third-instar larvae reared on 100 ug/mL compound pre-treated cabbage leaf disks assessed as insect mortality measured after 3 days post compound treatment by leaf dipping method
Plutella xylostella [2] = assay: Insecticidal activity against Plutella xylostella (diamondback moth) third-instar larvae reared on 100 ug/mL compound pre-treated cabbage leaf disks assessed as insect mortality measured after 2 days post compound treatment by leaf dipping method
Plutella xylostella [3] = assay: Insecticidal activity against Plutella xylostella (diamondback moth) third-instar larvae reared on 10 ug/mL compound pre-treated cabbage leaf disks assessed as insect mortality measured after 3 days post compound treatment by leaf dipping method
Plutella xylostella [4] = assay: Insecticidal activity against Plutella xylostella (diamondback moth) third-instar larvae reared on 10 ug/mL compound pre-treated cabbage leaf disks assessed as insect mortality measured after 2 days post compound treatment by leaf dipping method

In the case of `Cc1cc(NC(=O)c2cccc(I)c2C(=O)NC(C)(C)CS(C)(=O)=O)ccc1OCC=C(Cl)Cl`, the mortality (Plutella xylostella [1]) is reported as 19% and the mortality (Plutella xylostella [2]) is reported as 8%.
`CC(C)(CS(C)(=O)=O)NC(=O)c1c(I)cccc1C(=O)Nc1ccc(OCC=C(Cl)Cl)cc1Cl` gave a mortality (Plutella xylostella [3]) of 20%, a mortality (Plutella xylostella [4]) of 0% and a mortality (Plutella xylostella [1]) of 100%. The mortality (Plutella xylostella [2]) was 75%.
With `CC(C)(C)NC(=O)c1c(I)cccc1C(=O)Nc1ccc(OCC=C(Cl)Cl)cc1Cl` the mortality (Plutella xylostella [3]) was 91%, the mortality (Plutella xylostella [4]) was 65% and the mortality (Plutella xylostella [1]) was 100%. For the same molecule, the mortality (Plutella xylostella [2]) was 90%.
`Cc1cc(OCC=C(Cl)Cl)ccc1NC(=O)c1cccc(I)c1C(=O)NC(C)(C)C` was tested, and the mortality (Plutella xylostella [3]) was 58%, the mortality (Plutella xylostella [4]) was 32% and the mortality (Plutella xylostella [1]) was 100%. It also gave a mortality (Plutella xylostella [2]) of 69%.
`COCC(C)(C)NC(=O)c1c(I)cccc1C(=O)Nc1ccc(OCC=C(Cl)Cl)cc1C` showed a mortality (Plutella xylostella [1]) of 72% and a mortality (Plutella xylostella [2]) of 47%.
Molecule `Cc1cc(C(F)(C(F)(F)F)C(F)(F)F)ccc1NC(=O)c1cccc(I)c1C(=O)NC(C)(C)CS(C)(=O)=O` [FLUBENDIAMIDE] has a mortality (Plutella xylostella [3]) of 100%, a mortality (Plutella xylostella [4]) of 67% and a mortality (Plutella xylostella [2]) of 100%.
With `CC(C)(C)NC(=O)c1c(I)cccc1C(=O)Nc1ccc(OCC=C(Cl)Cl)cc1F` the mortality (Plutella xylostella [3]) was 0%, the mortality (Plutella xylostella [4]) was 0% and the mortality (Plutella xylostella [1]) was 100%. It also gave a mortality (Plutella xylostella [2]) of 81%.
With `CSCC(C)(C)NC(=O)c1c(I)cccc1C(=O)Nc1ccc(OCC=C(Cl)Cl)c(Cl)c1` the mortality (Plutella xylostella [1]) was 81% and the mortality (Plutella xylostella [2]) was 38%.
`COCC(C)(C)NC(=O)c1c(I)cccc1C(=O)Nc1ccc(OCC=C(Cl)Cl)c(C(F)(F)F)c1` gave a mortality (Plutella xylostella [1]) of 44% and a mortality (Plutella xylostella [2]) of 42%.
With `CSCC(C)(C)NC(=O)c1c(I)cccc1C(=O)Nc1ccc(OCC=C(Cl)Cl)c(C(F)(F)F)c1` the mortality (Plutella xylostella [1]) was 0% and the mortality (Plutella xylostella [2]) was 0%.
`CC(C)(CS(C)(=O)=O)NC(=O)c1c(I)cccc1C(=O)Nc1ccc(OCC=C(Cl)Cl)cc1C(F)(F)F` gave a mortality (Plutella xylostella [1]) of 69% and a mortality (Plutella xylostella [2]) of 25%.
`COCC(C)(C)NC(=O)c1c(I)cccc1C(=O)Nc1ccc(OCC=C(Cl)Cl)c(C)c1` was tested, and the mortality (Plutella xylostella [1]) was 70% and the mortality (Plutella xylostella [2]) was 42%.
For `CC(C)(C)NC(=O)c1c(I)cccc1C(=O)Nc1ccc(OCC=C(Cl)Cl)cc1C(F)(F)F`, the mortality (Plutella xylostella [1]) was 90% and the mortality (Plutella xylostella [2]) was 65%.
For `COCC(C)(C)NC(=O)c1c(I)cccc1C(=O)Nc1ccc(OCC=C(Cl)Cl)cc1F`, the mortality (Plutella xylostella [1]) was 61% and the mortality (Plutella xylostella [2]) was 47%.
`CC(C)(C)NC(=O)c1c(I)cccc1C(=O)Nc1ccc(OCC=C(Cl)Cl)c(Cl)c1` showed a mortality (Plutella xylostella [1]) of 76% and a mortality (Plutella xylostella [2]) of 57%.
`FC(F)(F)c1ccc(OCCCOc2c(Cl)cc(OCC=C(Cl)Cl)cc2Cl)nc1` [PYRIDALYL] showed a mortality (Plutella xylostella [3]) of 37%, a mortality (Plutella xylostella [4]) of 13% and a mortality (Plutella xylostella [2]) of 100%.
Molecule `CSCC(C)(C)NC(=O)c1c(I)cccc1C(=O)Nc1ccc(OCC=C(Cl)Cl)c(C)c1` has a mortality (Plutella xylostella [1]) of 10% and a mortality (Plutella xylostella [2]) of 0%.
Molecule `CC(C)(C)NC(=O)c1c(I)cccc1C(=O)Nc1ccc(OCC=C(Cl)Cl)c(C(F)(F)F)c1` has a mortality (Plutella xylostella [1]) of 8% and a mortality (Plutella xylostella [2]) of 0%.
In the case of `CC(C)(CS(C)(=O)=O)NC(=O)c1c(I)cccc1C(=O)Nc1ccc(OCC=C(Cl)Cl)c(Cl)c1`, the mortality (Plutella xylostella [1]) is reported as 48% and the mortality (Plutella xylostella [2]) is reported as 24%.
For `Cc1cc(OCC=C(Cl)Cl)ccc1NC(=O)c1cccc(I)c1C(=O)NC(C)(C)CS(C)(=O)=O`, the mortality (Plutella xylostella [1]) was 81% and the mortality (Plutella xylostella [2]) was 76%.
`CSCC(C)(C)NC(=O)c1c(I)cccc1C(=O)Nc1ccc(OCC=C(Cl)Cl)cc1Cl` gave a mortality (Plutella xylostella [3]) of 43%, a mortality (Plutella xylostella [4]) of 0% and a mortality (Plutella xylostella [2]) of 100%.
`COCC(C)(C)NC(=O)c1c(I)cccc1C(=O)Nc1ccc(OCC=C(Cl)Cl)cc1Cl` gave a mortality (Plutella xylostella [1]) of 63% and a mortality (Plutella xylostella [2]) of 54%.
`CSCC(C)(C)NC(=O)c1c(I)cccc1C(=O)Nc1ccc(OCC=C(Cl)Cl)cc1C` gave a mortality (Plutella xylostella [3]) of 19%, a mortality (Plutella xylostella [4]) of 10% and a mortality (Plutella xylostella [1]) of 95%. The mortality (Plutella xylostella [2]) was 90%.
Work on `COCC(C)(C)NC(=O)c1c(I)cccc1C(=O)Nc1ccc(OCC=C(Cl)Cl)cc1C(F)(F)F` yielded a mortality (Plutella xylostella [1]) of 44% and a mortality (Plutella xylostella [2]) of 32%.
`CSCC(C)(C)NC(=O)c1c(I)cccc1C(=O)Nc1ccc(OCC=C(Cl)Cl)cc1F` gave a mortality (Plutella xylostella [3]) of 0%, a mortality (Plutella xylostella [4]) of 0% and a mortality (Plutella xylostella [1]) of 100%. The mortality (Plutella xylostella [2]) was 58%.
For `CC(C)(CS(C)(=O)=O)NC(=O)c1c(I)cccc1C(=O)Nc1ccc(OCC=C(Cl)Cl)cc1F`, the mortality (Plutella xylostella [1]) was 90% and the mortality (Plutella xylostella [2]) was 55%.
With `CC(C)(CS(C)(=O)=O)NC(=O)c1c(I)cccc1C(=O)Nc1ccc(OCC=C(Cl)Cl)cc1` the mortality (Plutella xylostella [1]) was 60% and the mortality (Plutella xylostella [2]) was 15%.
`Cc1cc(NC(=O)c2cccc(I)c2C(=O)NC(C)(C)C)ccc1OCC=C(Cl)Cl` showed a mortality (Plutella xylostella [1]) of 25% and a mortality (Plutella xylostella [2]) of 0%.
`CC(C)(C)NC(=O)c1c(I)cccc1C(=O)Nc1ccc(OCC=C(Cl)Cl)cc1` showed a mortality (Plutella xylostella [1]) of 78% and a mortality (Plutella xylostella [2]) of 39%.
In the case of `CSCC(C)(C)NC(=O)c1c(I)cccc1C(=O)Nc1ccc(OCC=C(Cl)Cl)cc1C(F)(F)F`, the mortality (Plutella xylostella [1]) is reported as 62% and the mortality (Plutella xylostella [2]) is reported as 57%.
`COCC(C)(C)NC(=O)c1c(I)cccc1C(=O)Nc1ccc(OCC=C(Cl)Cl)c(Cl)c1` was tested, and the mortality (Plutella xylostella [1]) was 61% and the mortality (Plutella xylostella [2]) was 42%.
Work on `CC(C)(CS(C)(=O)=O)NC(=O)c1c(I)cccc1C(=O)Nc1ccc(OCC=C(Cl)Cl)c(C(F)(F)F)c1` yielded a mortality (Plutella xylostella [1]) of 0% and a mortality (Plutella xylostella [2]) of 0%.
`CSCC(C)(C)NC(=O)c1c(I)cccc1C(=O)Nc1ccc(OCC=C(Cl)Cl)cc1` was tested, and the mortality (Plutella xylostella [1]) was 45% and the mortality (Plutella xylostella [2]) was 15%.
